In patent publication US11584763B2, “Chromenopyridine derivatives as phosphatidylinositol phosphate kinase inhibitors” (HIBERCELL, INC., priority 2017, dated 2023):

Key:
Type in all cases: biochemical
PIP4K2B = molecular target: T1, PIP4K2B (Homo sapiens, UniProt P78356); assay: Trans-FI P kinase assay PIP4K2B (PIP4KtypeIIB inhibition assay); conditions: compounds listed under IC50 bin headings; 100 uM GTP; read-out: Trans-FI P kinase assays: PIP4K2B IC50
T1 construct: made in house; host or cells: E. coli
T1 sequence (P78356 1-416): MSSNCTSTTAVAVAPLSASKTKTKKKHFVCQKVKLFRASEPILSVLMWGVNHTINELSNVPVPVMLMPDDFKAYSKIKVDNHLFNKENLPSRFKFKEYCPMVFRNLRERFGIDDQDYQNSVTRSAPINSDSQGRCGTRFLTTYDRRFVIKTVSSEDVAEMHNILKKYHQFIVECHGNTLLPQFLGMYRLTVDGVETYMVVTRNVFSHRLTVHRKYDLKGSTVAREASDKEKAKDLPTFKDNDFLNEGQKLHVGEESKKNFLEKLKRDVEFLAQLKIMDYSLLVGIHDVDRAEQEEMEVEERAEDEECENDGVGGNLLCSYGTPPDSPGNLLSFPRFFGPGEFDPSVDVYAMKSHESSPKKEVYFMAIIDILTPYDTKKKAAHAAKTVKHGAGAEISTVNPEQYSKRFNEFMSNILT
Summary of the method: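 GST-tagged human PIP4K2B (5 nM, E. coli-expressed) preincubated 1 h at 27 C with compound (top 4.8 uM, 5% DMSO), then reacted 2 h with 100 uM GTP and 80 uM PI5P/DOPE vesicles in HEPES pH 7.3, MgCl2, Triton X-100. GDP detected by Transcreener FI fluorescence via calibration curve; IC50 from % activity vs log[inhibitor].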

PIP4K 2A [1] = molecular target: T2, PIP4K 2A (Homo sapiens, UniProt P48426); assay: Kinase Assay PIP4K2 A (PIP4KtypeIIA inhibition assay); design: made in house; host or cells: E. coli; conditions: compounds listed under IC50 bin headings
T2 sequence (P48426 1-406): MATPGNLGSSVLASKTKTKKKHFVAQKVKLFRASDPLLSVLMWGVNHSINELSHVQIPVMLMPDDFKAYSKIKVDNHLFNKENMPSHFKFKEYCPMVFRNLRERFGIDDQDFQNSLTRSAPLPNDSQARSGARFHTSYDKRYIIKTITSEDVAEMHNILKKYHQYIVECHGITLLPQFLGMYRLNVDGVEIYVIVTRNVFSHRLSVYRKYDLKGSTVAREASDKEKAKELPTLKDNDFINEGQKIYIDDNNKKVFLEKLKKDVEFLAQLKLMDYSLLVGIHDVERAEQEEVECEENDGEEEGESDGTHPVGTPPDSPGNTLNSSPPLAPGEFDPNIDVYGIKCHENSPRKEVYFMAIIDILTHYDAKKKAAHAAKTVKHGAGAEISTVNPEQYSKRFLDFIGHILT
From the text: GST tagged PIP4KtypeIIA and B enzymes were overexpressed in E. Coli and purified to >80% homogeneity. Phosphatidyl inositol-5-phosphate (PI5P, Cat. #850152, Avanti Polar Lipids Inc.) was used as the lipid substrate and phosphatidyl ethanolamine (DOPE 18:1, Cat. #850725, Avanti Polar Lipids Inc.) was used as the carrier lipid for assays. Ultrapure ATP and GTP was purchased from Bellbrooke Labs. ADP Glo reagents were obtained from Promega. Transcreener FI reagent was obtained from Bellbrooke labs.
Enzyme preparation: GST-tagged PIP4KtypeIIA (5 uL, 1.43 mg/mL) was diluted (1:10) to 50 uL using HNE buffer. From the 1:10 diluted stock, a 6.4 uL aliquot was diluted further to 5 mL using HNE buffer to yield 5× enzyme stock (2.5 nM).
Lipid Preparation: In a 10 mL pyrex glass vial, 1 ug of PI5P and 1 ug of DOPE were suspended in 2.5 mL of HEPES buffer mix and 2.5 mL of H:E buffer. The contents were mixed and sonicated for 3 min to yield a translucent lipid stock.
Compound Preparation: Compounds were stored as 5 mM stocks in neat DMSO as room temperature in glass vials. 5 mM stocks were diluted to 2 mM and then serially diluted (3×) in neat DMSO in 96 well polypropylene plates. From the serially diluted stocks, 3 uL was delivered into 250 uL of 25% DMSO (in water) to generate 5× compound stocks. Typically, the highest compound conc. was 24 uM.
The assay volume was kept at 25 uL. To each well of the reaction plate, 10 uL of lipid stock (1:1 ratio PI5P:DOPE) was delivered. This was followed by the addition of 5 uL of compound in 25% DMSO. Then, to each well, 5 uL of 2.5 nM (5×) typeIIA enzyme was delivered. The contents were mixed well and incubated for 1 h at 27 C. After 1 h, reaction was initiated by adding 5 uL of 50 uM ATP and the contents were mixed well with a multi-channel pipetteman. The final concentration of the reagents are as follows: 50 mM HEPES, pH 7.3, 10 mM MgCl2, 20 mM NaCl, 0.01% v/v triton-X100, 5% DMSO, 10 uM ATP, 80 uM (2 ug) PI5P, 2 ug DOPE, and 0.5 nM PIP4KIIA. Typically, the highest conc. of compounds was 4.8 uM and the lowest conc. was 0.
After 1 hr, the reaction was quenched by adding 25 uL of ADP Glo reagent. The contents were incubated for 1 hr. Afterwards, 50 uL of kinase detection reagent was delivered. The contents were incubated for another hour. The luminescence was read using Molecular Devices Paradigm plate reader. […] The blanks were averaged and subtracted from all other wells. Using a calibration curve, RLU was converted to uM ADP (product). IC50 was calculated by plotting the residual activity (expressed as % No inhibitor control) vs. log [Inh. conc.]

PIP4K 2A [2] = molecular target: T2, PIP4K 2A; assay: ADP-glo kinase assay PIP4K 2A; design: 4 nM PIP4K2A (full length protein, SignalChem); purchased SignalChem; conditions: compounds listed under IC50 bin headings
Summary of the method: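 Full-length PIP4K2A was pre-incubated 15 min at RT with compound in 20 mM MOPS pH 7.2, 25 mM MgCl2, 0.005% Tween 20. The enzyme mix held 4 nM kinase and 100 μM PI(5)P diC8, and ATP was added from a 60 μM solution. After 1 h at RT, ADP-Glo luminescence gave % inhibition versus DMSO, fitted to IC50 over 10 threefold dilutions.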

Row | Structure (SMILES) | IC50 (PIP4K2B) [nM] | IC50 (PIP4K 2A [1]) [nM] | IC50 (PIP4K 2A [2]) [nM]
1 | CC1Oc2cc(C(=O)N(C)C)ccc2-c2cnc(Nc3cccnc3)cc21 (stereo not drawn) [Example 31, N,N,5-trimethyl-3-(pyridin-3-ylamino)-5H-chromeno[4,3-c]pyridine-8-carboxamide] | 100 to 1000 | 1 to 10 | 1 to 10
2 | CC1Oc2cc(N3CCCC3=O)ccc2-c2cnc(Nc3cncc(C4(C#N)CC4)c3)cc21 (stereo not drawn) [Example 39, 1-(5-((5-methyl-8-(2-oxopyrrolidin-1-yl)-5H-chromeno[4,3-c]pyridin-3-yl)amino)pyridin-3-yl)cyclopropane-1-carbonitrile] | 10 to 100 | ≤ 1 | 
3 | CC1Oc2cc(N3CCCC3=O)ccc2-c2cnc(Nc3cnc4c(c3)N3[C@H](CO4)CN(C)S3(=O)=O)cc21 (stereo partly drawn) [Example 187, 1-(5-methyl-3-(((S)-2-methyl-1,1-dioxido-2,3,3a,4-tetrahydropyrido[2,3-b][1,2,5]thiadiazolo[2,3-d][1,4]oxazin-8-yl)amino)-5H-chromeno[4,3-c]pyridin-8-yl)pyrrolidin-2-one] | 100 to 1000 | 10 to 100 | 
4 | C[C@@H]1Oc2cc(N3CCCC3=O)ccc2-c2cnc(Nc3cnc4c(c3)N3C(=O)CC[C@H]3CO4)cc21 [Example 193, (S)-2-(((S)-5-methyl-8-(2-oxopyrrolidin-1-yl)-5H-chromeno[4,3-c]pyridin-3-yl)amino)-6,6a,7,8-tetrahydro-9H-pyrido[2,3-b]pyrrolo[1,2-d][1,4]oxazin-9-one] |  | ≤ 1 | ≤ 1
5 | O=C1CCCN1c1ccc(-c2ccc(Nc3cnc4c(c3)N3C(=O)C5(CC5)C[C@H]3CO4)nc2)cc1F [Example 197, (S)-2′-((5-(3-fluoro-4-(2-oxopyrrolidin-1-yl)phenyl)pyridin-2-yl)amino)-6a′,7′-dihydro-6′H,9′H-spiro[cyclopropane-1,8′-pyrido[2,3-b]pyrrolo[1,2-d][1,4]oxazin]-9′-one] | 1 to 10 |  | 1 to 10
6 | CN(C)C/C=C/C(=O)Nc1ccc(C(=O)Nc2cncc(Nc3cc4c(cn3)-c3ccc(N5CCCC5=O)cc3OC4(C)C)c2)cc1 [Example 198, (E)-N-(5-((5,5-dimethyl-8-(2-oxopyrrolidin-1-yl)-5H-chromeno[4,3-c]pyridin-3-yl)amino)pyridin-3-yl)-4-(4-(dimethylamino)but-2-enamido)benzamide] | 1 to 10 |  | 1 to 10
7 | CN(C)C/C=C/C(=O)Nc1cccc(CCC(=O)Nc2cncc(Nc3cc4c(cn3)-c3ccc(N5CCCC5=O)cc3OC4(C)C)c2)c1 [Example 199, (E)-N-(3-(3-((5-((5,5-dimethyl-8-(2-oxopyrrolidin-1-yl)-5H-chromeno[4,3-c]pyridin-3-yl)amino)pyridin-3-yl)amino)-3-oxopropyl)phenyl)-4-(dimethylamino)but-2-enamide] | 10 to 100 |  | 1 to 10
8 | CN(C)C/C=C/C(=O)Nc1ccc(C(=O)Nc2cncc(Nc3cc4c(cn3)-c3ccc(N5CCCC5=O)cc3OC4)c2)cc1 [Example 200, (E)-4-(4-(dimethylamino)but-2-enamido)-N-(5-((8-(2-oxopyrrolidin-1-yl)-5H-chromeno[4,3-c]pyridin-3-yl)amino)pyridin-3-yl)benzamide] | 1 to 10 |  | 1 to 10
9 | CC1Oc2cc(N3CCCC3=O)ccc2-c2cncc(Nc3ccncc3)c21 (stereo not drawn) [Example 203, 1-(5-methyl-4-(pyridin-4-ylamino)-5H-chromeno[4,3-c]pyridin-8-yl)pyrrolidin-2-one] | > 1000 |  | > 1000
10 | CC1Oc2cc(N3CCCC3=O)c(F)cc2-c2cnc(Nc3cnc4c(c3)N3C(=O)[C@](C)(O)C[C@H]3CO4)cc21 (stereo partly drawn) [Example 204, (6aS,8R)-2-((9-fluoro-5-methyl-8-(2-oxopyrrolidin-1-yl)-5H-chromeno[4,3-c]pyridin-3-yl)amino)-8-hydroxy-8-methyl-6,6a,7,8-tetrahydro-9H-pyrido[2,3-b]pyrrolo[1,2-d][1,4]oxazin-9-one] | 10 to 100 |  | 1 to 10
11 | CC1Oc2cc(N3CCCC3=O)ccc2-c2cnc(Nc3cnc4c(c3)N3C(=O)[C@](C)(O)C[C@H]3CO4)cc21 (stereo partly drawn) [Example 205, (6aS,8R)-8-hydroxy-8-methyl-2-((5-methyl-8-(2-oxopyrrolidin-1-yl)-5H-chromeno[4,3-c]pyridin-3-yl)amino)-6,6a,7,8-tetrahydro-9H-pyrido[2,3-b]pyrrolo[1,2-d][1,4]oxazin-9-one] | 10 to 100 |  | 10 to 100
12 | CC1Oc2cc(N3CCCC3=O)ccc2-c2cnc(Nc3cnc4c(c3)N3C(=O)C(O)C[C@H]3CO4)cc21 (stereo partly drawn) [Example 206, (6aS)-8-hydroxy-2-((5-methyl-8-(2-oxopyrrolidin-1-yl)-5H-chromeno[4,3-c]pyridin-3-yl)amino)-6,6a,7,8-tetrahydro-9H-pyrido[2,3-b]pyrrolo[1,2-d][1,4]oxazin-9-one] | 1 to 10 |  | ≤ 1
13 | Cc1conc1-c1ccc2c(c1)OC(C)(C)c1cc(Nc3cnc4c(c3)N3C(=O)CC[C@H]3CO4)ncc1-2 [Example 209, (S)-2-((5,5-dimethyl-8-(4-methylisoxazol-3-yl)-5H-chromeno[4,3-c]pyridin-3-yl)amino)-6,6a,7,8-tetrahydro-9H-pyrido[2,3-b]pyrrolo[1,2-d][1,4]oxazin-9-one] | 1 to 10 | ≤ 1 | 
14 | Cn1cnnc1-c1ccc2c(c1)OC(C)(C)c1nc(Nc3cnc4c(c3)N3C(=O)CC[C@H]3CO4)ncc1-2 [Example 210, (S)-2-((5,5-dimethyl-8-(4-methyl-4H-1,2,4-triazol-3-yl)-5H-chromeno[3,4-d]pyrimidin-3-yl)amino)-6,6a,7,8-tetrahydro-9H-pyrido[2,3-b]pyrrolo[1,2-d][1,4]oxazin-9-one] |  | ≤ 1 | 
15 | Cn1cnnc1-c1ccc2c(c1)OC(C)(C)c1cc(Nc3cnc4c(c3)N3C(=O)CC[C@H]3CO4)ncc1-2 [Example 211, (S)-2-((5,5-dimethyl-8-(4-methyl-4H-1,2,4-triazol-3-yl)-5H-chromeno[4,3-c]pyridin-3-yl)amino)-6,6a,7,8-tetrahydro-9H-pyrido[2,3-b]pyrrolo[1,2-d][1,4]oxazin-9-one] | 1 to 10 | ≤ 1 | 
